Assay results published in US20240116985A1, “STAPLED PEPTIDES AND METHODS THEREOF” (priority 2020, published 2024).

What was measured:
[1] = target: T1, full-length beta-Catenin (Uniprot ID P35222) (Homo sapiens, UniProt P35222); experiment: Fluorescence polarization IC50 (beta-catenin / 5FAM-TCF4 10-53 competition); type: binding; conditions: fluorescence polarization; read-out: beta-Catenin FP IC50
T1 construct: 10 nM full-length beta-Catenin (Uniprot ID P35222)
T1 sequence (P35222 1-781): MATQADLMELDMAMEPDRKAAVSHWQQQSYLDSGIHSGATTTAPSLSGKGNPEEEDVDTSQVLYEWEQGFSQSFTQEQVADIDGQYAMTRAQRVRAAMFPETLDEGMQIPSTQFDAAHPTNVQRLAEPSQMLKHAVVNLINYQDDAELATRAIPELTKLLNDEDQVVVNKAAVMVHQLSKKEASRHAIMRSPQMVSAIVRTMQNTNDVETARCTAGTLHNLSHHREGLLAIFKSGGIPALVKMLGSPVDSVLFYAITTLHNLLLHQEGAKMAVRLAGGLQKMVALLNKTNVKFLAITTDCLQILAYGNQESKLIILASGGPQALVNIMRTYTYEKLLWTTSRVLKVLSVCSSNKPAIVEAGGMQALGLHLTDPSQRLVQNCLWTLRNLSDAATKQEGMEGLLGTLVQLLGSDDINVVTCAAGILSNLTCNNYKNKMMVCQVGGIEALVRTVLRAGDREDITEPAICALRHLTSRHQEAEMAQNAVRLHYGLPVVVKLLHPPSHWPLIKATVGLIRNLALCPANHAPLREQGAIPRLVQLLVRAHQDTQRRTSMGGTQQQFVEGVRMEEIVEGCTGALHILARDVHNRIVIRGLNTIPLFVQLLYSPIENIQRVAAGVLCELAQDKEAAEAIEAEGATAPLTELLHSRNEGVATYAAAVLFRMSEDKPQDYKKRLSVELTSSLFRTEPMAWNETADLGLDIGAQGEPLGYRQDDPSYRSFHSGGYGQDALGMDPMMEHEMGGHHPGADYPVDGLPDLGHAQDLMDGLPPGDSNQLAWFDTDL

[2] = target: T2, beta-catenin/TCF4 engagement (Homo sapiens, UniProt P35222); experiment: Nano-BRET target engagement assay (B-cat-Halo & TCF4-Luc in HEK293 cells); type: cell-based; conditions: absolute IC50; read-out: NanoBRET Abs IC50
T2 construct: expressed in transfected cells; host or cells: HEK293
T2 sequence (P35222 1-781): T1 sequence (P35222 1-781)

Structure (SMILES)	IC50 [1] [nM]	IC50 [2] [µM]
CC(=O)N1CCC[C@]12CC=CCCCC1(CCCC=CCCCOC(=O)N3CC[C@@](C(=O)N[C@@H](Cc4ccccc4C(F)(F)F)C(=O)N[C@H](C(=O)N[C@@H](C)C(N)=O)[C@@H](C)c4csc5ccccc45)(C3)NC(=O)[C@H](CC(C)C)NC(=O)[C@H](Cc3ccccc3)NC(=O)[C@H](C)NC(=O)[C@H](CCC(N)=O)NC(=O)[C@H](Cc3cccc(C(=O)O)c3)NC(=O)[C@H](CC(=O)O)NC1=O)NC(=O)[C@H](CC(C)(C)C)NC(=O)[C@H](CC(=O)O)NC2=O (stereo partly drawn) [I-2457, Ac-PL3-Asp-Npg-B5-Asp-3COOHF-Gln-Ala-Phe-Leu-PyrS2-2F3MeF-SbMeBztA-Ala-NH2]	52	20.8
CC(=O)N1CCC[C@]12CC=CCCCC1(CCCC=CCCCOC(=O)N3CC[C@@](C(=O)N[C@@H](Cc4ccccc4C(F)(F)F)C(=O)N[C@H](C(=O)N[C@@H](C)C(N)=O)[C@H](C)c4csc5ccccc45)(C3)NC(=O)[C@H](CC(C)C)NC(=O)[C@H](Cc3ccccc3)NC(=O)[C@H](C)NC(=O)[C@H](CCC(N)=O)NC(=O)[C@H](Cc3cccc(C(=O)O)c3)NC(=O)[C@H](CC(=O)O)NC1=O)NC(=O)[C@H](CC(C)(C)C)NC(=O)[C@H](CC(=O)O)NC2=O (stereo partly drawn) [I-2459, Ac-PL3-Asp-Npg-B5-Asp-3COOHF-Gln-Ala-Phe-Leu-PyrS2-2F3MeF-RbMeBztA-Ala-NH2]	56	15.1
CC(=O)N1CCC[C@]12CC=CCCCC1(CCCC=CCCCOC(=O)N3CC[C@@](C(=O)N[C@@H](Cc4ccccc4C(F)(F)F)C(=O)N[C@H](C(=O)N[C@@H](CCC(N)=O)C(N)=O)[C@H](C)c4ccc5ccccc5c4)(C3)NC(=O)[C@H](CC(C)C)NC(=O)[C@H](Cc3ccccc3)NC(=O)[C@H](C)NC(=O)[C@H](C)NC(=O)[C@H](Cc3cccc(C(=O)O)c3)NC(=O)[C@H](CC(=O)O)NC1=O)NC(=O)[C@H](CC(C)(C)C)NC(=O)[C@H](CC(=O)O)NC2=O (stereo partly drawn) [I-2462, Ac-PL3-Asp-Npg-B5-Asp-3COOHF-Ala-Ala-Phe-Leu-PyrS2-2F3MeF-RbMe2NapA-Gln-NH2]	40	4.7
CC(=O)N1CCC[C@]12CC=CCCCC1(CCCC=CCCCOC(=O)N3CC[C@@](C(=O)N[C@@H](Cc4ccccc4C(F)(F)F)C(=O)N[C@H](C(=O)N[C@@H](CCC(N)=O)C(N)=O)[C@@H](C)c4ccc5ccccc5c4)(C3)NC(=O)[C@H](CC(C)C)NC(=O)[C@H](Cc3ccccc3)NC(=O)[C@H](C)NC(=O)[C@H](C)NC(=O)[C@H](Cc3cccc(C(=O)O)c3)NC(=O)[C@H](CC(=O)O)NC1=O)NC(=O)[C@H](CC(C)(C)C)NC(=O)[C@H](CC(=O)O)NC2=O (stereo partly drawn) [I-2464, Ac-PL3-Asp-Npg-B5-Asp-3COOHF-Ala-Ala-Phe-Leu-PyrS2-2F3MeF-SbMe2NapA-Gln-NH2]	79	16.5
CCNC(=O)CC[C@H](NC(=O)[C@H](Cc1csc2ccccc12)NC(=O)[C@H](Cc1ccsc1)NC(=O)[C@]12CCN(C1)C(=O)OCCCC=CCCCC1(CCCC=CC[C@]3(CCCN3C(C)=O)C(=O)N[C@@H](CC(=O)O)C(=O)N[C@@H](CC(C)(C)C)C(=O)N1)C(=O)N[C@@H](CC(=O)O)C(=O)N[C@@H](CN(CC(=O)O)CC(F)(F)F)C(=O)N[C@@H](C)C(=O)N[C@@H](C)C(=O)N[C@@H](Cc1ccccc1)C(=O)N[C@@H](CC(C)C)C(=O)N2)C(=O)N[C@@H](C)C(N)=O (stereo partly drawn) [I-2471, Ac-PL3-Asp-Npg-B5-Asp-TfeGA-Ala-Ala-Phe-Leu-PyrS2-3Thi-BztA-[NHEt]GlnR-Ala-NH2]	14	2.1
CC(=O)N1CCC[C@]12CC=CCCCC1(CCCC=CCCCOC(=O)N3CC[C@@](C(=O)N[C@@H](Cc4ccsc4)C(=O)N[C@@H](Cc4csc5ccccc45)C(=O)N[C@@H](CCCCN)C(N)=O)(C3)NC(=O)[C@H](CC(N)=O)NC(=O)[C@H](Cc3ccccc3)NC(=O)[C@H](C)NC(=O)C(C)(C)NC(=O)[C@H]([C@@H](C)O)NC(=O)[C@H](CC(N)=O)NC1=O)NC(=O)[C@H](CC(C)(C)C)NC(=O)[C@H](CC(=O)O)NC2=O (stereo partly drawn) [I-2477, Ac-PL3-Asp-Npg-B5-Asn-Thr-Aib-Ala-Phe-Asn-PyrS2-3Thi-BztA-Lys-NH2]	165	> 20

More lines, now with the values ahead:

IC50 [1] [nM]	IC50 [2] [µM]	Structure (SMILES)
49	8.1	CC(=O)N1CCC[C@]12CC=CCCCC1(CCCC=CCCCOC(=O)N3CC[C@@](C(=O)N[C@@H](Cc4ccccc4C(F)(F)F)C(=O)N[C@H](C(=O)N[C@@H](CCC(N)=O)C(N)=O)[C@@H](C)c4csc5ccccc45)(C3)NC(=O)[C@H](CC(C)C)NC(=O)[C@H](Cc3ccccc3)NC(=O)[C@H](C)NC(=O)[C@H](C)NC(=O)[C@H](Cc3cccc(C(=O)O)c3)NC(=O)[C@H](CC(=O)O)NC1=O)NC(=O)[C@H](CC(C)(C)C)NC(=O)[C@H](CC(=O)O)NC2=O (stereo partly drawn) [I-2456, Ac-PL3-Asp-Npg-B5-Asp-3COOHF-Ala-Ala-Phe-Leu-PyrS2-2F3MeF-SbMeBztA-Gln-NH2]
33	5.9	CC(=O)N1CCC[C@]12CC=CCCCC1(CCCC=CCCCOC(=O)N3CC[C@@](C(=O)N[C@@H](Cc4ccccc4C(F)(F)F)C(=O)N[C@H](C(=O)N[C@@H](CCC(N)=O)C(N)=O)[C@H](C)c4csc5ccccc45)(C3)NC(=O)[C@H](CC(C)C)NC(=O)[C@H](Cc3ccccc3)NC(=O)[C@H](C)NC(=O)[C@H](C)NC(=O)[C@H](Cc3cccc(C(=O)O)c3)NC(=O)[C@H](CC(=O)O)NC1=O)NC(=O)[C@H](CC(C)(C)C)NC(=O)[C@H](CC(=O)O)NC2=O (stereo partly drawn) [I-2458, Ac-PL3-Asp-Npg-B5-Asp-3COOHF-Ala-Ala-Phe-Leu-PyrS2-2F3MeF-RbMeBztA-Gln-NH2]
82	12.8	CC(=O)N1CCC[C@]12CC=CCCCC1(CCCC=CCCCOC(=O)N3CC[C@@](C(=O)N[C@@H](Cc4ccccc4C(F)(F)F)C(=O)N[C@@H](Cc4ccc5ccccc5c4)C(=O)N[C@@H](CCC(N)=O)C(N)=O)(C3)NC(=O)[C@H](CC(C)C)NC(=O)[C@H](Cc3ccccc3)NC(=O)[C@H](C)NC(=O)[C@H](C)NC(=O)[C@H](Cc3cccc(C(=O)O)c3)NC(=O)[C@H](CC(=O)O)NC1=O)NC(=O)[C@H](CC(C)(C)C)NC(=O)[C@H](CC(=O)O)NC2=O (stereo partly drawn) [I-2460, Ac-PL3-Asp-Npg-B5-Asp-3COOHF-Ala-Ala-Phe-Leu-PyrS2-2F3MeF-2NapA-Gln-NH2]
47	6.5	CC(=O)N1CCC[C@]12CC=CCCCC1(CCCC=CCCCOC(=O)N3CC[C@@](C(=O)N[C@@H](Cc4ccccc4C(F)(F)F)C(=O)N[C@H](C(=O)N[C@@H](C)C(N)=O)[C@H](C)c4ccc5ccccc5c4)(C3)NC(=O)[C@H](CC(C)C)NC(=O)[C@H](Cc3ccccc3)NC(=O)[C@H](C)NC(=O)[C@H](CCC(N)=O)NC(=O)[C@H](Cc3cccc(C(=O)O)c3)NC(=O)[C@H](CC(=O)O)NC1=O)NC(=O)[C@H](CC(C)(C)C)NC(=O)[C@H](CC(=O)O)NC2=O (stereo partly drawn) [I-2463, Ac-PL3-Asp-Npg-B5-Asp-3COOHF-Gln-Ala-Phe-Leu-PyrS2-2F3MeF-RbMe2NapA-Ala-NH2]
164	> 20	CC(=O)N1CCC[C@]12CC=CCCCC1(CCCC=CCCCOC(=O)N3CC[C@@](C(=O)N[C@@H](Cc4ccccc4C(F)(F)F)C(=O)N[C@H](C(=O)N[C@@H](C)C(N)=O)[C@@H](C)c4ccc5ccccc5c4)(C3)NC(=O)[C@H](CC(C)C)NC(=O)[C@H](Cc3ccccc3)NC(=O)[C@H](C)NC(=O)[C@H](CCC(N)=O)NC(=O)[C@H](Cc3cccc(C(=O)O)c3)NC(=O)[C@H](CC(=O)O)NC1=O)NC(=O)[C@H](CC(C)(C)C)NC(=O)[C@H](CC(=O)O)NC2=O (stereo partly drawn) [I-2465, Ac-PL3-Asp-Npg-B5-Asp-3COOHF-Gln-Ala-Phe-Leu-PyrS2-2F3MeF-SbMe2NapA-Ala-NH2]
13	1.8	CCNC(=O)CC[C@H](NC(=O)[C@H](Cc1csc2ccccc12)NC(=O)[C@H](Cc1ccccc1C(F)(F)F)NC(=O)[C@]12CCN(C1)C(=O)OCCCC=CCCCC1(CCCC=CC[C@]3(CCCN3C(C)=O)C(=O)N[C@@H](CC(=O)O)C(=O)N[C@@H](CC(C)(C)C)C(=O)N1)C(=O)N[C@@H](CC(=O)O)C(=O)N[C@@H](Cc1cccc(C(=O)O)c1)C(=O)N[C@@H](C)C(=O)N[C@@H](C)C(=O)N[C@@H](Cc1ccccc1)C(=O)N[C@@H](CC)C(=O)N2)C(=O)N[C@@H](C)C(N)=O (stereo partly drawn) [I-2472, Ac-PL3-Asp-Npg-B5-Asp-3COOHF-Ala-Ala-Phe-Abu-PyrS2-2F3MeF-BztA-INHEt]GlnR-Ala-NH2]
310	> 20	CC(=O)N1CCC[C@]12CC=CCCCC1(CCCC=CCCCOC(=O)N3CC[C@@](C(=O)N[C@@H](Cc4ccsc4)C(=O)N[C@@H](Cc4csc5ccccc45)C(=O)N[C@@H](Cc4ccc(O)cc4)C(N)=O)(C3)NC(=O)[C@H](CC(N)=O)NC(=O)[C@H](Cc3ccccc3)NC(=O)[C@H](C)NC(=O)C(C)(C)NC(=O)[C@H]([C@@H](C)O)NC(=O)[C@H](CC(N)=O)NC1=O)NC(=O)[C@H](CC(C)(C)C)NC(=O)[C@H](CC(=O)O)NC2=O (stereo partly drawn) [I-2478, Ac-PL3-Asp-Npg-B5-Asn-Thr-Aib-Ala-Phe-Asn-PyrS2-3Thi-BztA-Tyr-NH2]
